Results: US7655392B2, “Quenching methods for red blood cell inactivation process” (priority 2004, dated 2010)

Test system: Staphylococcus epidermidis
Test: Inactivation of Staphylococcus epidermidis in RBC (colony count)
Settings: for Change in Log titer: initial RBC titer 6.5
[1] = 0.2 mM PIC-1, then 20 mM glutathione+2 eq base after 1 min
[2] = 0.2 mM PIC-1, then 20 mM glutathione+2 eq base after 5 min
[3] = 0.2 mM PIC-1, then 20 mM glutathione+2 eq base after 10 min
[4] = 0.2 mM PIC-1, then 20 mM glutathione+2 eq base after 20 min
[5] = 0.2 mM PIC-1 and 2 mM glutathione, 0 eq base, simultaneous
[6] = 0.2 mM PIC-1 and 20 mM glutathione, 0 eq base, simultaneous
[7] = 20 mM glutathione+2 eq base, then 0.2 mM PIC-1 after 1 min
[8] = 20 mM glutathione+2 eq base, then 0.2 mM PIC-1 after 10 min
[9] = Table 5C: 0.2 mM PIC-1+2 mM GSH, 0 eq base, no delay
[10] = Table 5C: 5 mM Cys+1 eq base, then 0.2 mM PIC-1 after 10 min
[11] = Table 5C: 10 mM Cys+1 eq base, then 0.2 mM PIC-1 after 10 min
[12] = Table 5C: 20 mM Cys+1 eq base, then 0.2 mM PIC-1 after 10 min
[13] = Table 5C: 20 mM GSH+2 eq base, then 0.2 mM PIC-1 after 10 min
[14] = Table 5C: […] Cys+1 eq base, then 0.2 mM PIC-1 after 10 min

Method: Whole blood (Blood Source, Sacramento, Calif.) was used to prepare a red blood cell (RBC) composition by centrifuging to provide packed RBC (34 mL of approximately 90% hematocrit), then adding 17 mL Erythrosol to a hematocrit of approximately 60%. Erythrosol is a red blood cell additive (Baxter Healthcare Corp., Deerfield, Ill.) that may be prepared by combining sodium citrate dihydrate (7.82 g); sodium acid phosphate dihydrate (0.73 g); sodium phosphate dihydrate (3.03 g); adenine (0.22 g); mannitol (7.74 g); and glucose (9 g) in 1 liter of distilled water. The bacterial preparation was then added ( 1/100th of the total volume) to the RBC/Erythrosol to provide contaminated RBC. The contaminated RBC was divided into several samples and treated according to Table 2, where PIC-1 is β-alanine, N-(acridin-9-yl), 2-[bis(2-chloroethyl)amino]ethyl ester. The PIC-1 and glutathione (Aldrich, St. Louis, Mo.) were dissolved in a solution of 8% dextrose monohydrate at about 15× the desired concentration in the final red blood cell composition when added together, or 30× when added separately. […] For separate addition using 20 mM neutralized glutathione, PIC-1 is prepared by dissolving 7.6 mg in 2.5 mL of 8% dextrose, glutathione is prepared by dissolving 460 mg in 1.9 mL of 8% dextrose and mixing with 0.6 mL of 5N NaOH, then adding 165 μL of each solution to 4.67 mL RBC in the appropriate order. Following treatment, the samples were incubated for 2 hours, and 100 μL of each was serially diluted and plated on LB plates. These were incubated overnight at 37° C. in order to assess bacterial growth. The bacterial titer was determined by counting colonies on the plates and based on the dilution of the plate, the titer was determined. For example, with 10-fold serial dilutions, 30 colonies counted on the 5th dilution of the original solution, where 0.1 mL are plated, would indicate an initial titer of (30×10^5)/0.1=3×10^7, or 7.47 log. […] Note that for most samples in Table 2A the PIC-1 and glutathione were formulated together. […] The study was repeated with sequential addition of the two components, as indicated in Table 2B (time delay of 0 indicates they were added in the same solution).
Additional studies were done using S. epidermidis, where the overnight culture was used without dilution. […] PIC-1 is at 0.2 mM in all samples.
For these samples, the NaOH stock was prepared at 10N and appropriate volumes of the various components were used following the procedures above. Standard conditions and/or 20 mM neutralized glutathione (GSH) were run for comparison.

SMILES: O=C(CCNc1c2ccccc2nc2ccccc12)OCCN(CCCl)CCCl [PIC-1]
- Log S. epidermidis reduction [1]: 6.70 Log
- Log S. epidermidis titer [1]: −0.08 Log
- Log S. epidermidis reduction [2]: 6.70 Log
- Log S. epidermidis titer [2]: −0.08 Log
- Log S. epidermidis reduction [3]: 6.70 Log
- Log S. epidermidis titer [3]: −0.08 Log
- Log S. epidermidis reduction [4]: 6.70 Log
- Log S. epidermidis titer [4]: −0.08 Log
- Log S. epidermidis reduction [5]: 6.70 Log
- Log S. epidermidis titer [5]: −0.08 Log
- Log S. epidermidis reduction [6]: 0.22 Log
- Log S. epidermidis titer [6]: 6.40 Log
- Log S. epidermidis reduction [7]: 6.10 Log
- Log S. epidermidis titer [7]: 0.52 Log
- Log S. epidermidis reduction [8]: 5.92 Log
- Log S. epidermidis titer [8]: 0.70 Log
- inactivation of S. epidermidis (20 mM neutralized glutathione as quencher, 0.2 mM PIC-1): not significantly reduced
- Log S. epidermidis reduction [9]: 7.2 Log
- Log S. epidermidis titer [9]: 0 Log
- Log S. epidermidis reduction [10]: 7.2 Log
- Log S. epidermidis titer [10]: 0 Log
- Log S. epidermidis reduction [11]: 4.9 Log
- Log S. epidermidis titer [11]: 2.3 Log
- Log S. epidermidis reduction [12]: 4.0 Log
- Log S. epidermidis titer [12]: 3.2 Log
- Log S. epidermidis reduction [13]: 7.2 Log
- Log S. epidermidis titer [13]: 0 Log
- Log S. epidermidis reduction [14]: 7.2 Log
- Log S. epidermidis titer [14]: 0 Log
- Change in Log titer (2 mM GSH, 1 eq. base, 0.2 mM PIC-1): 6.5 Log
- Change in Log titer (2 mM GSH, 2 eq. base, 0.2 mM PIC-1): 6.5 Log
- Change in Log titer (2 mM GSH, no added base, 0.2 mM PIC-1): 6.5 Log
- Change in Log titer (5 mM GSH, 1 eq. base, 0.2 mM PIC-1): 6.5 Log
- Change in Log titer (5 mM GSH, 2 eq. base, 0.2 mM PIC-1): 6.5 Log
- Change in Log titer (5 mM GSH, no added base, 0.2 mM PIC-1): 6.5 Log
- Change in Log titer (10 mM GSH, 1 eq. base, 0.2 mM PIC-1): 6.5 Log
- Change in Log titer (10 mM GSH, 2 eq. base, 0.2 mM PIC-1): 6.5 Log
- Change in Log titer (10 mM GSH, no added base, 0.2 mM PIC-1): 2.9 Log
- Change in Log titer (20 mM GSH, 1 eq. base, 0.2 mM PIC-1): 6.5 Log
- Change in Log titer (20 mM GSH, 2 eq. base, 0.2 mM PIC-1): 6.5 Log
- Change in Log titer (20 mM GSH, no added base, 0.2 mM PIC-1): 2.5 Log
